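Growth conditions: 96-well plates. Treatment: test compound, 48 hours, 5 concentrations. Analysis: linear interpolation between bracketing concentrations; unreached endpoints set to highest concentration. The concentration for 50% growth inhibition is given as GI50.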 The source made the active and inactive calls. Rule as the data show it: active = GI50 up to about 1.1 µM and inactive = higher.
How the values were obtained:
Assay in all cases: growth of human tumour cells (NCI), 48 h
HOP-62 = test system: HOP-62
SN12C = test system: SN12C
A498 = test system: A498
SF-539 = test system: SF-539
Hs-578T = test system: Hs-578T
RXF 393 = test system: RXF 393
SF-268 = test system: SF-268
SNB-19 = test system: SNB-19
TK-10 = test system: TK-10
SK-MEL-28 = test system: SK-MEL-28
K562 = test system: K562
LOX IMVI = test system: LOX IMVI
ACHN = test system: ACHN
OVCAR-5 = test system: OVCAR-5
NCI-H460 = test system: NCI-H460
M14 = test system: M14
UACC-62 = test system: UACC-62
A549 = test system: A549
CAKI-1 = test system: CAKI-1
IGROV-1 = test system: IGROV-1
NCI-H522 = test system: NCI-H522
SF-295 = test system: SF-295
HCT-116 = test system: HCT-116
UACC-257 = test system: UACC-257
U-251 = test system: U-251
NCI-H226 = test system: NCI-H226
MDA-MB-231 = test system: MDA-MB-231
MOLT-4 = test system: MOLT-4
SNB-75 = test system: SNB-75
HT-29 = test system: HT-29
HCT-15 = test system: HCT-15
OVCAR-3 = test system: OVCAR-3
DU-145 = test system: DU-145
MDA-MB-435 = test system: MDA-MB-435
SK-MEL-5 = test system: SK-MEL-5
SW-620 = test system: SW-620
T47D = test system: T47D
COLO 205 = test system: COLO 205
RPMI-8226 = test system: RPMI-8226
HL-60 = test system: HL-60
CCRF-CEM = test system: CCRF-CEM
NCI/ADR-RES = test system: NCI/ADR-RES
SK-OV-3 = test system: SK-OV-3
UO-31 = test system: UO-31
PC-3 = test system: PC-3
KM12 = test system: KM12
MDA-N = test system: MDA-N
OVCAR-8 = test system: OVCAR-8
786-0 = test system: 786-0
SK-MEL-2 = test system: SK-MEL-2
NCI-H23 = test system: NCI-H23
Malme-3M = test system: Malme-3M
HCC 2998 = test system: HCC 2998
MCF7 = test system: MCF7
OVCAR-4 = test system: OVCAR-4
HOP-92 = test system: HOP-92
EKVX = test system: EKVX

CC1(C)C2CCC(=O)C1CC2 (stereo not drawn)
GI50 (HOP-62): > 100 µM (inactive) | GI50 (SN12C): > 100 µM (inactive) | GI50 (A498): > 100 µM (inactive) | GI50 (SF-539): > 100 µM (inactive) | GI50 (Hs-578T): > 100 µM (inactive) | GI50 (RXF 393): > 100 µM (inactive) | GI50 (SF-268): > 100 µM (inactive) | GI50 (SNB-19): > 100 µM (inactive) | GI50 (TK-10): > 100 µM (inactive) | GI50 (SK-MEL-28): > 100 µM (inactive) | GI50 (K562): 58.2 µM (inactive) | GI50 (LOX IMVI): > 100 µM (inactive) | GI50 (ACHN): > 100 µM (inactive) | GI50 (OVCAR-5): > 100 µM (inactive) | GI50 (NCI-H460): > 100 µM (inactive) | GI50 (M14): > 100 µM (inactive) | GI50 (UACC-62): > 100 µM (inactive) | GI50 (A549): > 100 µM (inactive) | GI50 (CAKI-1): > 100 µM (inactive) | GI50 (IGROV-1): > 100 µM (inactive) | GI50 (NCI-H522): > 100 µM (inactive) | GI50 (SF-295): > 100 µM (inactive) | GI50 (HCT-116): > 100 µM (inactive) | GI50 (UACC-257): > 100 µM (inactive) | GI50 (U-251): > 100 µM (inactive) | GI50 (NCI-H226): > 100 µM (inactive) | GI50 (MDA-MB-231): > 100 µM (inactive) | GI50 (MOLT-4): > 100 µM (inactive) | GI50 (SNB-75): > 100 µM (inactive) | GI50 (HT-29): > 100 µM (inactive) | GI50 (HCT-15): > 100 µM | GI50 (OVCAR-3): > 100 µM (inactive) | GI50 (DU-145): > 100 µM (inactive) | GI50 (MDA-MB-435): > 100 µM (inactive) | GI50 (SK-MEL-5): > 100 µM (inactive) | GI50 (SW-620): > 100 µM (inactive) | GI50 (T47D): > 100 µM (inactive) | GI50 (COLO 205): > 100 µM (inactive) | GI50 (RPMI-8226): > 100 µM (inactive) | GI50 (HL-60): > 100 µM (inactive) | GI50 (CCRF-CEM): > 100 µM (inactive) | GI50 (NCI/ADR-RES): > 100 µM (inactive) | GI50 (SK-OV-3): > 100 µM (inactive) | GI50 (UO-31): > 100 µM (inactive) | GI50 (PC-3): > 100 µM (inactive) | GI50 (KM12): > 100 µM (inactive) | GI50 (MDA-N): > 100 µM (inactive) | GI50 (OVCAR-8): > 100 µM (inactive) | GI50 (786-0): > 100 µM (inactive) | GI50 (SK-MEL-2): > 100 µM (inactive) | GI50 (NCI-H23): > 100 µM (inactive) | GI50 (Malme-3M): > 100 µM (inactive) | GI50 (HCC 2998): > 100 µM (inactive) | GI50 (MCF7): > 100 µM (inactive)

CCCCCCCCCCCCCCCCCCOP1(=O)OCCO1
GI50 (HOP-62): 79.1 µM (inactive) | GI50 (SN12C): > 100 µM (inactive) | GI50 (A498): > 100 µM (inactive) | GI50 (SF-539): > 100 µM (inactive) | GI50 (RXF 393): 16.4 µM (inactive) | GI50 (SNB-19): 44.8 µM (inactive) | GI50 (TK-10): 30.4 µM (inactive) | GI50 (SK-MEL-28): > 100 µM (inactive) | GI50 (K562): > 100 µM (inactive) | GI50 (LOX IMVI): 52.1 µM (inactive) | GI50 (ACHN): > 100 µM (inactive) | GI50 (OVCAR-5): 74 µM (inactive) | GI50 (M14): > 100 µM (inactive) | GI50 (UACC-62): > 100 µM (inactive) | GI50 (A549): 79.4 µM (inactive) | GI50 (CAKI-1): > 100 µM (inactive) | GI50 (IGROV-1): > 100 µM (inactive) | GI50 (NCI-H522): 54.6 µM (inactive) | GI50 (SF-295): 28.5 µM (inactive) | GI50 (HCT-116): 49.5 µM (inactive) | GI50 (UACC-257): > 100 µM (inactive) | GI50 (U-251): 27.9 µM (inactive) | GI50 (NCI-H226): > 100 µM (inactive) | GI50 (MDA-MB-231): 44.5 µM (inactive) | GI50 (MOLT-4): 40.7 µM (inactive) | GI50 (SNB-75): > 100 µM (inactive) | GI50 (HT-29): > 100 µM (inactive) | GI50 (HCT-15): 39.9 µM | GI50 (OVCAR-3): > 100 µM (inactive) | GI50 (DU-145): > 100 µM (inactive) | GI50 (OVCAR-4): > 100 µM (inactive) | GI50 (MDA-MB-435): > 100 µM (inactive) | GI50 (SK-MEL-5): > 100 µM (inactive) | GI50 (SW-620): > 100 µM (inactive) | GI50 (T47D): > 100 µM (inactive) | GI50 (COLO 205): > 100 µM (inactive) | GI50 (RPMI-8226): 37.4 µM (inactive) | GI50 (HL-60): 23.8 µM (inactive) | GI50 (CCRF-CEM): 54 µM (inactive) | GI50 (HOP-92): > 100 µM (inactive) | GI50 (NCI/ADR-RES): > 100 µM (inactive) | GI50 (SK-OV-3): > 100 µM (inactive) | GI50 (UO-31): > 100 µM (inactive) | GI50 (PC-3): 22.8 µM (inactive) | GI50 (KM12): > 100 µM (inactive) | GI50 (MDA-N): > 100 µM (inactive) | GI50 (OVCAR-8): > 100 µM (inactive) | GI50 (786-0): > 100 µM (inactive) | GI50 (SK-MEL-2): > 100 µM (inactive) | GI50 (NCI-H23): > 100 µM (inactive) | GI50 (Malme-3M): > 100 µM (inactive) | GI50 (HCC 2998): 47.2 µM (inactive) | GI50 (EKVX): > 100 µM (inactive) | GI50 (MCF7): > 100 µM (inactive)

— ChEMBL document CHEMBL1201862, “PubChem BioAssay data set” (2004)
